“Also recorded” adds a separate entry of the source.

Data on two sequences can be found in patent US11827690B2, “ApoC-II mimetic peptides” (THE UNITED STATES OF AMERICA, as represented by the …, priority 2017, dated 2023).

Test [1] relates to VLDL isolated from human plasma. As to the kind of experiment: ApoC-III displacement study in VLDL isolated from human plasma. Type of test: binding. How it is done:
VLDL or chylomicrons isolated from human plasma were incubated with an apoC-II mimetic peptide for 1 hour at 37° C. and washed 3 times with PBS using spin filter with 100 kDa cutoff membrane. […] ApoC-I, apoC-II, apoC-III, and apoE bands were identified by their corresponding size.

In test [2] the target is T1, LPL inhibited by apoC-III (Bos taurus, UniProt P11151).
T1 sequence (P11151 29-478): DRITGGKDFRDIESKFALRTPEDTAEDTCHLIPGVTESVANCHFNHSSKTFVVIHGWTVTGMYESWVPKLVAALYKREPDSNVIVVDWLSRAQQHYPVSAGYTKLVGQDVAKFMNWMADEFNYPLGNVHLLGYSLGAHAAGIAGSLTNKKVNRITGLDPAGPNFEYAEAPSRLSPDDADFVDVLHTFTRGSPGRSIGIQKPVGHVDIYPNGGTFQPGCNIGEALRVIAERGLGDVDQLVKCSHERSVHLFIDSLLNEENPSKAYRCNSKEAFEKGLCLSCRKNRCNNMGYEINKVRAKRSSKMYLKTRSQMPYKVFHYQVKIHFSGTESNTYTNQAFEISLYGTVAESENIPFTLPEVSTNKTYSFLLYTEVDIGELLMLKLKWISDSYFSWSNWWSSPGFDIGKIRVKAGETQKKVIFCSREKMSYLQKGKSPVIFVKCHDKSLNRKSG
As to the kind of experiment: LPL activation assay with high TG human plasma as substrate and recombinant apoC-III as an inhibitor. To be noted: for effect on inhibition of LPL by apoC-III: high TG human plasma substrate. Type of test: biochemical. How it is done:
(§1) LPL activity assay: 10 μL of Intralipid, human plasma sample, or mouse plasma sample was added in each well using repeater pipette. 10 μL (or 15 μL in the wells with no LPL control) of PBS and 10 μL of 1% BSA was added in each well using repeater pipette. 10 μL of peptides were added to corresponding wells in vertical triplicates (lowest concentration is on a left, highest is on the right). The plate was spun down at 1000 RPM for 10 seconds to mix and to remove the solutions from the wall of each well. The plate was put on ice and 5 μL of LPL was added using repeater pipette. The plate was spun down again at 1000 RPM for 10 seconds. The plate was covered and put back on ice for an incubation of 30 min. The plate was then moved to 37° C. and incubated for 1 hour.
(§2) Free fatty acids (NEFA) assay: 45 μL of 5 nmoL standard and 0 nmoL control (0.2% BSA) were added to corresponding wells. 225 μL of reagent A was added in each well using the reagent tray and 12-channel pipette. The plate was incubated for 10 min before 75 μL of reagent B was added to each well using the reagent tray and 12-channel pipette. The plate was not covered due to the high volume. The absorbance at 550 nm and 660 nm was measured.
(§3) LPL assay was performed using Intralipid, high TG human plasma (1:50 dilution), or apoC-III transgenic mouse plasma (1:50 dilution). When Intralipid was used as a substrate, 25 or 50 μM recombinant ApoC-III was added as an inhibitor. When the high TG human plasma was used as a substrate, 25 or 50 μM recombinant ApoC-III was added as an inhibitor with or without pre-incubation at 37° C. for 1 hour. An apoC-II mimetic peptide was added at various concentrations.

The test system of the next test is wild-type mice. As to the kind of experiment: serum TG of wild-type mice after Intralipid injection with or without LPL inhibitor Triton WR1339. The class given is in vivo. How it is done: In some experiments, each animal received 20% Intralipid (FDA approved, Fresenius Kabi, Uppsala, Sweden) in a single dose either by oral gavage (using special sterile single-use non-toxic animal feeding needles) in a dose 10-20 μL/gram body weight (B.W.) (Tuzcu et al. Drug Chem Toxicol 37: 261-267, 2014; Kusminski et al. Nature Medicine 18: 1539-1549, 2012), or by intraperitoneal injection in a single bolus of 0.1-1.0 mL (Mahadero et al. American J Surgery 164: 45-50, 1992), or by intragastric administration of a dietetic commercially-available liquid oil (food grade vegetable, corn, soy or olive oil) in a single dose 10-20 μL/gram body weight. These oils were a source of TG—when absorbed TG tends to be broken down within 3 h (peak in 30 min) (Kritchevsky Nutritional Biochemistry 6:172-178, 1995). Blood samples (20-30 μL) were obtained from the retro-orbital plexus at time points: −1 h, 0 h, 1 h, 3 h, 6 h and 24 h for measurements of lipids. Mice were returned to metabolic cages after the 6 h time point where the food was put back. Once the study was completed (after 24 hours from the fat administration), mice were euthanized and organs collected.
The ability of apolipoprotein mimetic peptides to normalize hypertriglyceridemia in mice treated with an LPL inhibitor, Tyloxapol, in presence of high TG provided by 20% Intralipid, was assessed.
Mice were fasted overnight (approximately 12 hours) before the study and 6 hours during the study, the next day. The apo mimetic peptides were synthetically produced and free of biological contamination (not available as FDA approved compounds/treatment). Peptides were produced and used in sterile conditions and filtered by 0.2 nm filter before injections in a single dose 1-5 μmol/kg B.W. either S.C. or I.P. or I.V. (in a sterile, pharmaceutical grade PBS solution at a volume ≤200 μL). Next, 10% Tyloxapol (Triton WR-1339, T-0307, Sigma-Aldrich) was injected I.V. in a single dose of 5 μL/gram B.W., as described earlier (Zhang Y. L. et al., J Biol Chem. 279: 19362-19374, 2004; Abe C. et al., J. Nutr. 137: 345-350, 2007). […] Finally, each animal received 20% Intralipid (FDA approved, Fresenius Kabi, Uppsala, Sweden) in a single dose either by oral gavage (using special sterile single-use non-toxic animal feeding needles)—in a dose 10-20 μL/gram B.W. (Tuzcu K. et al., Drug Chem Toxicol., 37: 261-267, 2014, Kusminski C. et al., Nature Medicine. 18: 1539-1549, 2012), or by intraperitoneal injection—in a single bolus of 0.1-1.0 mL (Mahadero G. et al., American J Surgery. 164: 45-50, 1992). Blood samples (20-30 μL) were obtained from the retro-orbital plexus at time points: −1 h, 0 h, 1 h, 3 h, 6 h and 24 h for measurements of lipids. Mice were returned to metabolic cages after the 6 h time point where the food was put back. Once the study was completed (after 24 hours from the Intralipid administration), mice were euthanized and organs collected.

The target of the next test is T2, LPL (Bos taurus, UniProt P11151).
T2 sequence (P11151 29-478): T1 sequence (P11151 29-478)
As to the kind of experiment: addition of exogenous LPL to serum samples collected after IP injection with Intralipid. Type of test: biochemical.

In test [3] the target is T1, LPL inhibited by apoC-III. As to the kind of experiment: LPL assay using human apoC-II deficient plasma as substrate with recombinant apoC-III. Type of test: biochemical. Particulars: 25 μM apoC-III, FIG. 50. How it is done: as §1, §2, §3

“DWLKAFYDKVAEKLKEAFPAMSTYTGIFTDQVLSVLKGEE (listed as Homo sapiens) [apoC-II-a, excluded from the claimed peptides]”: the “affinity for the VLDL compared with the apolipoproteins” value in test [1] is on record as “higher affinity for the VLDL than the apolipoproteins”. For the same sequence, the “selectivity of apolipoprotein displacement” value in test [1] (MALDI-TOF mass spectrometry, FIG. 29A) is “selectively replaced apoC-III and apoC-I, but not apoC-II; also recorded: selectively displaces apoC-III and apoC-I but not apoC-II”. The “binding of peptide to VLDL versus concentration” value in test [1] (MALDI-TOF, FIG. 29B) is “almost proportional to its concentration; also recorded: approximately proportional to its concentration”. In test [2], the “influence of pre-incubation of apoC-III with human plasma on peptide effect” value was “did not change the effect” and the “effect on inhibition of LPL by apoC-III” value was “further facilitated lipolysis”. For the same sequence, in test [2] (50 μM apoC-III, FIG. 32), the “concentration at which it overcame the inhibitory effect of apoC-III” value is listed as “about 0.2 μM” and the “concentration at which it started to affect lipolysis” value worked out at 0.01 µM. Further, in test [2] (listed as ApoC-II-a), the “effect on inhibition of LPL by apoC-III” value was “overcomes the inhibition by apoC-III”. The “block of rise in serum TG after IP injection of Intralipid” value in the test with wild-type mice (co-injected with the LPL inhibitor Triton WR1339) was “about 50%”. The “lipoprotein particles from treated mice as substrates for LPL” value with LPL is “better substrates for LPL”.

On to “DYLKEVFEKLRDLYEKFTPAVSTYTGIFTDQVLSVLKGEE [Delta6PV]”, for which the “affinity for the VLDL compared with the apolipoproteins” value in test [1] was “higher affinity for the VLDL than the apolipoproteins”. In addition, the “apoC-II displacement in VLDL” value in test [1] (FIG. 49) was “also displaced”. Further, in test [1] (SDS PAGE), the “apoC-III displacement in VLDL” value was “displaced apoC-III in a dose-dependent matter”. For the same sequence, the “effect on inhibition of LPL by apoC-III” value in test [2] is “overcomes the inhibition of apoC-III”; in test [3], “overcame the inhibitory effect of apoC-III and facilitated lipolysis”. For the same sequence, the “effect on inhibition of LPL by Triton” value in the test with wild-type mice (FIG. 35B) is “reversed the inhibition of LPL by Triton”. Moreover, the “serum TG increase after Intralipid injection” value is recorded as “the TG increase was significantly reduced” in the test with wild-type mice (intraperitoneal peptide, presence or absence of Triton, FIG. 35B); “the TG increase was significantly reduced” in the test with wild-type mice (repeat-dose study, peptide IP 1 hour after Intralipid, 0.25 and 1 μmole/kg, FIG. 46B).
